Measurements taken from US5489675A, “Disaccharide sialidase substrates and inhibitors” (priority 1993, dated 1996).
Where a name gives a salt, the structure may show the parent alone.

Columns and labels:
[1] = target: T1, Arthrobacter ureafaciens neuraminidase (Paenarthrobacter ureafaciens, UniProt Q5W7Q2); test: colorimetric neuraminidase assay (sialoside hydrolysis), A. ureafaciens; format: biochemical; conditions: 37° C.; for rate of hydrolysis (time course): A. U. neuraminidase, 0.75 mM sialoside, 0-120 min, FIGS. 1 and 3 panel A; for Vmax: A. ureafaciens neuraminidase, sialoside as substrate, 20 min, Lineweaver-Burk
T1 sequence (Q5W7Q2 39-990): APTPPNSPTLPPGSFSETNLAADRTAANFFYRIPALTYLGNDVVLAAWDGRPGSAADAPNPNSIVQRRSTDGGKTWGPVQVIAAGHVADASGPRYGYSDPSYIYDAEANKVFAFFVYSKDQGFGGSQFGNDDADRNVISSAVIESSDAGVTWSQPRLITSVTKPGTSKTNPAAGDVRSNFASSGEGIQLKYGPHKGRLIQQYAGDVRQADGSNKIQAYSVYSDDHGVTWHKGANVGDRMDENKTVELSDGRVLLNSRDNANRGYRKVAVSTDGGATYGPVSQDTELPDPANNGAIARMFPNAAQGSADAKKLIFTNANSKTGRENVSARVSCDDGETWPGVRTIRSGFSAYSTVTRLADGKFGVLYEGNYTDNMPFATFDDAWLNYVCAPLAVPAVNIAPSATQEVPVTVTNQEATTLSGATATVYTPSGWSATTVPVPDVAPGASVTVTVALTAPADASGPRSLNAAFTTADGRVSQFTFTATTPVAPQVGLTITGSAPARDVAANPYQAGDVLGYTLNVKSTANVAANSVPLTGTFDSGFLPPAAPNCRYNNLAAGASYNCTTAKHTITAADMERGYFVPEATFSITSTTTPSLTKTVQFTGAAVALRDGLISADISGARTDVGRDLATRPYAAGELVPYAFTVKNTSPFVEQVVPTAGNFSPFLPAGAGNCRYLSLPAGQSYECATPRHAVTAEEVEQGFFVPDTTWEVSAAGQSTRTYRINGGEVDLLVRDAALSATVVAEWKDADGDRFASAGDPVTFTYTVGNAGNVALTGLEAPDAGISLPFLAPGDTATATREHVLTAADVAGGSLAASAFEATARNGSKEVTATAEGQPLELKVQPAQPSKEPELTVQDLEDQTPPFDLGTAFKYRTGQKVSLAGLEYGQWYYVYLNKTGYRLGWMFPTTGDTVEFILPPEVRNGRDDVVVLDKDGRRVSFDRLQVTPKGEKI

[2] = target: Vibrio cholerae neuraminidase (Vibrio cholerae serotype O1, UniProt P0C6E9); format: biochemical; conditions: for rate of hydrolysis (time course): 0.75 mM sialoside, 37° C., 0-120 min, FIGS. 1 and 3 panel C
[3] = tested on: Clostridium perfringens neuraminidase; format: biochemical; conditions: for Vmax: C. perfringens neuraminidase, sialoside as substrate, 20 min, Lineweaver-Burk; for Vmax / rate of hydrolysis (time course): 37° C.; for Km: read-out: Michaelis Constant Km; for rate of hydrolysis (time course): C. P. neuraminidase, 0.75 mM sialoside, 0-120 min, FIGS. 1 and 3 panel B
[4] = target: C. P. neuraminidase; format: biochemical, Clostridium perfringens; conditions: substrate 25, Dixon plots, 37° C.

Chain of Vibrio cholerae neuraminidase (P0C6E9 25-781): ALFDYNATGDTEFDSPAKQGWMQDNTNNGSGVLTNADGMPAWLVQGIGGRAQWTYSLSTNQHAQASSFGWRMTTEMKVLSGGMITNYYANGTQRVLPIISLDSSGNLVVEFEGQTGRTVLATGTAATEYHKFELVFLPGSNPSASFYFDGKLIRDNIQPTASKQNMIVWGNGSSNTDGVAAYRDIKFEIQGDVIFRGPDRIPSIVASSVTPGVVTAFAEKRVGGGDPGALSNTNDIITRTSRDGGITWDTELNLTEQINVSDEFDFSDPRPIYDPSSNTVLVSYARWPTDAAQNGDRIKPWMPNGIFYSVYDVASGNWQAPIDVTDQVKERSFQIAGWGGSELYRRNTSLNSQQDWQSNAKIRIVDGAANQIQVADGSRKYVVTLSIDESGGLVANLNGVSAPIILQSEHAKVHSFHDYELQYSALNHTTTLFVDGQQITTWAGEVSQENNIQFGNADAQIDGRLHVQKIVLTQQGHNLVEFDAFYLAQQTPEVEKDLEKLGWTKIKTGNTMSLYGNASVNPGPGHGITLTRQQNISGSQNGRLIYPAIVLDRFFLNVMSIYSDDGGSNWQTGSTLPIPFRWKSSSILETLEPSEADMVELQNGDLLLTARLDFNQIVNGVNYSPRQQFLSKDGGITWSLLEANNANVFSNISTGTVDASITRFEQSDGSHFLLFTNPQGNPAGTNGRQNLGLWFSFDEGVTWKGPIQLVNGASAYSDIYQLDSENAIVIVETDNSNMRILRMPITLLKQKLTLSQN

Row | Structure (SMILES) | rate of hydrolysis (time course) [1] | Vmax [1] | Vmax [2] | rate of hydrolysis (time course) [2] | Vmax [3] | Km [3] | rate of hydrolysis (time course) [3] | Ki [4]
1 | CC(=O)N[C@H]1[C@H]([C@H](O)[C@H](O)CO)O[C@@](O[C@H](C)[C@H]2O[C@@H](OCC[Si](C)(C)C)[C@H](O)[C@@H](O)[C@H]2O)(C(=O)O)C[C@@H]1O [Compound 16a, Sodium salt of 5-acetamido-3,5-dideoxy-D-glycero-D-galacto-nonulopyranosylonate(2-6)-7-deoxy-β-D-glycero-D-galactoheptopyranosyl-OCH2 CH2 Si (CH3)3] | efficiently hydrolyzed | 0.91 O.D./mU | 1.42 O.D./mU | preferentially hydrolyzed | 0.90 O.D./mU | 2150 µM |  | 
2 | CC(=O)N[C@H]1[C@H]([C@H](O)[C@H](O)CO)O[C@@](O[C@@H](C)[C@H]2O[C@@H](OCC[Si](C)(C)C)[C@H](O)[C@@H](O)[C@H]2O)(C(=O)O)C[C@@H]1O [Compound 16b, Sodium salt of 5-acetamido-3,5-dideoxy-D-glycero-D-galacto-nonulopyranosylonate(2-6)-7-deoxy-α-L-glycero-D-galactoheptopyranosyl-OCH2 CH2 Si (CH3)3] | little hydrolysis | 0.05 O.D./mU | 0.37 O.D./mU |  | 0.22 O.D./mU | 3200 µM | hydrolyzed very slowly | 
3 | CC(=O)N[C@H]1[C@H]([C@H](O)[C@H](O)CO)O[C@@](O[C@H](C)[C@H]2O[C@@H]3OC(C)(C)O[C@@H]3[C@H]3OC(C)(C)O[C@H]32)(C(=O)O)C[C@@H]1O [Compound 19a, Sodium salt of 5-acetamido-3,5-dideoxy-D-glycero-D-galacto-nonulopyranosylonic acid (2-6)-1,2;3,4-di-O-isopropylidene-7-deoxy-α-D-glycero-D-galactoheptopyranose] | no effect on the hydrolysis |  |  | no effect on the hydrolysis |  |  | detrimental effect | 
4 | CC(=O)N[C@H]1[C@H]([C@H](O)[C@H](O)CO)O[C@@](O[C@@H](C)[C@H]2O[C@@H]3OC(C)(C)O[C@@H]3[C@H]3OC(C)(C)O[C@H]32)(C(=O)O)C[C@@H]1O [Compound 19b, Sodium salt of 5-acetamido-3,5-dideoxy-D-glycero-D-galacto-nonulopyranosylonic acid (2-6)-1,2;3,4-di-O-isopropylidene-7-deoxy-α-D-glycero-D-galactoheptopyranose] |  |  |  | inactive |  |  | inactive | 
5 | CC(=O)NC1C(O)CC(SC(C)C2OC(O)C(O)C(O)C2O)(C(=O)O)OC1C(O)C(O)CO [Compound 22a, Sodium salt of 5-acetamido-3,5-dideoxy-D-glycero-D-galacto-nonulopyranosylonic acid (2-S-6) -7-deoxy-D-glycero-D-galactoheptopyranose] |  |  |  |  |  |  |  | 1000 µM
6 | CC(=O)NC1C(O)CC(OCC2OC(OCC[Si](C)(C)C)C(O)C(O)C2O)(C(=O)O)OC1C(O)C(O)CO (centres unmarked) [Compound 23a, αDNeuAc (2-6) βDGal-OCH2 CH2 Si (CH3)3, reference compound] | efficiently hydrolyzed | 0.7 O.D./mU | 2.2 O.D./mU | most preferred substrate | 0.88 O.D./mU | 650 µM | faster than the tg sialoside 16a | 
7 | CC(=O)N[C@H]1[C@H]([C@H](O)[C@H](O)CO)O[C@@](OC[C@H]2O[C@@H]3OC(C)(C)O[C@@H]3[C@H]3OC(C)(C)O[C@H]32)(C(=O)O)C[C@@H]1O [Compound 23b, reference compound] | more efficiently hydrolyzed | 0.73 O.D./mU | 4.5 O.D./mU | more efficiently hydrolyzed | 1.70 O.D./mU | 1440 µM | more efficiently hydrolyzed | 
